{"source": "patent US20250188404A1", "about": "“CULTURE CAPSULE AND METHOD FOR RES[…] IN VIABLE BUT NON-CULTURABLE (VBNC) STATE” (Innovation Center of Yangtze River Delta, ZJU, priority 2023, published 2025)", "test_system": "Salmonella ATCC14028 in a special dormant state", "assay": "Resuscitation (\"awakening\") of VBNC Salmonella by nutrient added alone, pour-plate colony growth", "type": "cell-based", "settings": "nutrient not encapsulated, more than 3 g egg yolk lecithin or more than 0.22 g cholesterol per 20 mL bacterial solution, static incubation 1 d to 7 d", "method": "In the examples of the present disclosure, induced preparation of Salmonella ATCC14028 in a special dormant state: single colonies of Salmonella ATCC14028 are inoculated in a liquid medium and cultivated at 37° C. and 180 rpm to a late logarithmic stage; a resulting bacterial solution is centrifuged at 6,000 rpm for 10 min, and a resulting supernatant is discarded; a resulting precipitate is washed twice with phosphate buffered saline (PBS) and then re-dissolved with PBS for later use, and a resulting bacterial solution is serially diluted to a concentration of 1*10^8 CFU/mL; 18 mL of PBS is added to a 50 mL centrifuge tube, the centrifuge tube is heated in a 60±2° C. water bath, and after the temperature in the centrifuge tube reaches 60±2° C., 2 mL of a 1*10^8 CFU/mL bacterial solution is added to the centrifuge tube; a diluted bacterial solution is magnetically stirred and heated for 20 min, and then immediately taken out and placed in ice for later use; a cooled bacterial solution is centrifuged at 7,000 rpm for 10 min, a resulting supernatant is discarded, and PBS is added to 20 mL for re-dissolution; and the treated bacterial solution is subjected to staining with a Live/Dead BacLight kit, and then the number of viable bacteria in the treated bacterial solution is detected by flow cytometry. […]", "data": [{"smiles": "CC(C)CCC[C@@H](C)[C@H]1CC[C@H]2[C@@H]3CC=C4C[C@@H](O)CC[C@]4(C)[C@H]3CC[C@]12C", "note": "[cholesterol]", "values": [{"measurement": "\"awakening\" of bacteria in a special dormant state (growth of colonies)", "value": "can “awaken” bacteria in a special dormant state"}]}]}
